# Laboratory results reported in patent US8119645B2, “Fungicide hydroximoyl-tetrazole derivatives” (Bayer Cropscience AG, priority 2006, dated 2012).
# Assay: logP by reversed-phase HPLC (EEC Directive 79/831 Annex V.A8)
# Format: physicochemical
# Settings: not given
row,chromatographic logP,SMILES
1,3.46,"Cn1nnnc1/C(=N/OCc1cccc(N2C(=O)c3ccccc3C2=O)n1)c1csc(-c2ccccc2)n1 [Compound 173, O-(2-Phtalimidopyridin-6-yl)methyl-(2-phenyl-1,3-thiazol-4-yl)-(1-methyitetrazol-5-yl)methanone oxime]"
2,4.06,"CCCCCC(=O)Nc1cccc(CO/N=C(\c2csc(-c3ccccc3)n2)c2nnnn2C)n1 [Compound 178, O-(2-Pentylcarbonylaminopyridin-6-yl)methyl-(2-phenyl-1,3-thiazol-4-yl)-(1-methyitetrazol-5-yl)methanone oxime]"

# Same assay, conditions: HPLC C18, 40° C., 0.1% aqueous formic acid / acetonitrile gradient
row,SMILES,LogP
1,Cc1nnnn1C(=NOCc1csc(NC(=O)Cc2ccccc2)n1)c1ccc(Br)s1 [Compound 93],3.53
2,Cc1nnnn1C(=NOCc1csc(NC(=O)CCc2ccccc2)n1)c1ccsc1 [Compound 33],3.14
3,CCCCCC(=O)Nc1nc(CON=C(c2ccsc2)n2nnnc2C)cs1 [Compound 30],3.25
4,CCCCCCCCC(=O)Nc1nc(CON=C(c2ccc(-c3ccc(Cl)c(Cl)c3)o2)n2nnnc2C)cs1 [Compound 83],5.85
5,Cc1nnnn1C(=NOCc1csc(N)n1)c1ccc(-c2ccccc2)o1 [Compound 131],2.13
6,Cc1nnnn1C(=NOCc1cccc(NC(=O)C(C)(C)C)n1)c1ccsc1 [Compound 37],3
7,Cc1ccc(C(=NOCc2csc(NC(=O)CCc3ccccc3)n2)n2nnnc2C)o1 [Compound 61],3.15
8,Cn1nnnc1C(=NOCc1csc(NC(=O)C(C)(C)C)n1)c1csc(-c2ccccc2)n1 [Compound 170],3.62
9,Cc1nnnn1C(=NOCc1csc(NC(=O)Cc2ccccc2)n1)c1ccc(-c2ccccc2)s1 [Compound 54],4.08
10,Cc1nnnn1C(=NOCc1csc(NC(=O)C2CCCCC2)n1)c1ccsc1Cl [Compound 8],4.48
11,Cc1ccc(C(=NOCc2csc(NC(=O)C(C)C)n2)n2nnnc2C)o1 [Compound 66],2.57
12,CCc1nnnn1C(=NOCc1csc(NC(=O)C(C)(C)C)n1)c1ccsc1 [Compound 42],3.35
13,Cc1nnnn1C(=NOCc1cccc(N)n1)c1ccsc1Cl [Compound 14],1.39
14,C=CCC(=O)Nc1nc(CON=C(c2ccsc2)n2nnnc2C)cs1 [Compound 40],2.51
15,Cc1ccc(C(=NOCc2csc(NC(=O)CCCc3ccccc3)n2)n2nnnc2C)o1 [Compound 60],3.4
16,Cc1ccc(C(=NOCc2csc(NC(=O)NCc3ccccc3)n2)n2nnnc2C)s1 [Compound 117],3.17
17,Cc1nnnn1C(=NOCc1cccc(NC(=O)C(C)(C)C)n1)c1ccsc1Cl [Compound 2],3.27
18,C=CCC(=O)Nc1nc(CON=C(c2ccc(Br)s2)n2nnnc2C)cs1 [Compound 97],3.08
19,Cc1ccc(C(=NOCc2cccc(NC(=O)OCCc3ccccc3)n2)n2nnnc2C)o1 [Compound 75],3.78
20,Cc1nnnn1C(=NOCc1csc(NC(=O)C(C)C)n1)c1ccsc1Cl [Compound 12],2.86
21,CCCCCC(=O)Nc1nc(CON=C(c2ccc(-c3ccccc3)s2)n2nnnc2C)cs1 [Compound 57],4.58
22,CCCCCOC(=O)Nc1cccc(CON=C(c2ccsc2Cl)n2nnnc2C)n1 [Compound 16],4.19
23,Cc1nnnn1C(=NOCc1csc(NC(=S)NCCc2ccccc2)n1)c1ccsc1 [Compound 47],3.65
24,Cc1nnnn1C(=NOCc1csc(NC(=O)c2ccccc2)n1)c1ccsc1 [Compound 35],2.93
25,Cc1nnnn1C(=NOCc1cccc(NC(=O)c2ccccc2)n1)c1ccsc1Cl [Compound 1],3.26
26,Cc1nnnn1C(=NOCc1csc(NC(=O)CCc2ccccc2)n1)c1ccsc1Cl [Compound 9],3.45
27,CCCCCC(=O)Nc1nc(CON=C(c2ccc(C)o2)n2nnnc2C)cs1 [Compound 64],3.26
28,CCCCCC(=O)Nc1cccc(CON=C(c2ccc(C)s2)n2nnnc2C)n1 [Compound 127],3.79

row,SMILES,LogP
1,Cn1nnnc1C(=NOCc1csc(NC(=O)Cc2ccccc2)n1)c1csc(-c2ccccc2)n1 [Compound 172],3.58
2,Cc1ccc(C(=NOCc2csc(N)n2)n2nnnc2C)o1 [Compound 58],1.47
3,Cc1nnnn1C(=NOCc1csc(NC(=O)C2CC2)n1)c1ccc(Br)s1 [Compound 96],3.04
4,Cc1nnnn1C(=NOCc1csc(NC(=O)COCc2ccccc2)n1)c1ccc(Br)s1 [Compound 95],3.76
5,COCCOC(=O)Nc1nc(CON=C(c2ccc(Br)s2)n2nnnc2C)cs1 [Compound 99],3.1
6,COCCOCC(=O)Nc1nc(CON=C(c2ccc(Br)s2)n2nnnc2C)cs1 [Compound 98],2.94
7,Cc1nnnn1C(=NOCc1csc(NC(=O)CCCc2ccccc2)n1)c1ccc(Cl)s1 [Compound 107],4.12
8,Cc1nnnn1C(=NOCc1csc(NC(=O)C2CC2)n1)c1ccc(-c2ccc(Cl)c(Cl)c2)o1 [Compound 84],3.83
9,CCCCCC(=O)Nc1nc(CON=C(c2cc(-c3ccccc3)c(Cl)s2)n2nnnc2C)cs1 [Compound 80],4.88
10,COCCOCC(=O)Nc1cccc(CON=C(c2ccsc2Cl)n2nnnc2C)n1 [Compound 15],2.61
11,CCCC(=O)Nc1nc(CON=C(c2cc(-c3ccccc3)c(Cl)s2)n2nnnc2C)cs1 [Compound 79],4.18
12,Cc1nnnn1C(=NOCc1csc(NC(=O)C2CC2)n1)c1ccc(Cl)s1 [Compound 101],3
13,C=CCNC(=O)Nc1nc(CON=C(c2ccsc2)n2nnnc2C)cs1 [Compound 27],2.22
14,Cc1nnnn1C(=NOCc1csc(NC(=O)C(C)(C)C)n1)c1ccc(Br)s1 [Compound 87],3.74
15,CCCCCC(=O)Nc1nc(CON=C(c2csc(-c3ccccc3)n2)c2nnnn2C)cs1 [Compound 171],3.94
16,C=CCC(=O)Nc1nc(CON=C(c2ccsc2Cl)n2nnnc2C)cs1 [Compound 6],2.73
17,C=CCC(=O)Nc1nc(CON=C(c2ccc(C)o2)n2nnnc2C)cs1 [Compound 69],2.42
18,Cc1ccc(C(=NOCc2csc(NC(=O)C3CC3)n2)n2nnnc2C)o1 [Compound 68],2.41
19,Cc1ccc(C(=NOCc2csc(NC(=O)NCCc3ccccc3)n2)n2nnnc2C)s1 [Compound 118],3.33
20,Cc1nnnn1C(=NOCc1csc(NC(=O)NC2CCCC2)n1)c1ccsc1 [Compound 28],2.65
21,CCCCCOC(=O)Nc1cccc(CON=C(c2csc(-c3ccccc3)n2)c2nnnn2C)n1 [Compound 177],4.56
22,Cc1nnnn1C(=NOCc1csc(NC(=O)C(C)(C)C)n1)c1ccc(Cl)s1 [Compound 102],3.73
23,CCCC(=O)Nc1nc(CON=C(c2ccc(-c3ccccc3)s2)n2nnnc2C)cs1 [Compound 56],3.87
24,CCCCCC(=O)Nc1nc(CON=C(c2ccc(Br)s2)n2nnnc2C)cs1 [Compound 92],3.92
25,Cc1nnnn1C(=NOCc1csc(NC(=O)C(C)(C)C)n1)c1ccc(-c2ccccc2)s1 [Compound 53],4.24
26,CCCCCCCCC(=O)Nc1nc(CON=C(c2ccsc2Cl)n2nnnc2C)cs1 [Compound 11],4.77
27,Cc1nnnn1C(=NOCc1csc(NC(=O)NC2CCCCC2)n1)c1ccsc1 [Compound 25],2.92
